Assays:
[1] = target: T1, mGAT1 (Mus musculus, UniProt P31648); assay: [3H]GABA uptake assay in HEK-293 cells stably expressing mGAT1; format: cell-based; conditions: for IC50: [3H]GABA uptake, read-out: pIC50 ± SEM mGAT1 (converted); for remaining [3H]GABA uptake mGAT1: in the presence of 100 μM inhibitor
T1 construct: expressed in transfected cells; host or cells: HEK-293

[2] = target: T2, mGAT2 (Mus musculus, UniProt P31651); assay: [3H]GABA uptake assay in HEK-293 cells stably expressing mGAT2; format: cell-based; conditions: for IC50: [3H]GABA uptake, read-out: pIC50 ± SEM mGAT2 (converted); for remaining [3H]GABA uptake mGAT2: in the presence of 100 μM inhibitor
T2 construct: expressed in transfected cells; host or cells: HEK-293
T2 sequence (P31651 1-614): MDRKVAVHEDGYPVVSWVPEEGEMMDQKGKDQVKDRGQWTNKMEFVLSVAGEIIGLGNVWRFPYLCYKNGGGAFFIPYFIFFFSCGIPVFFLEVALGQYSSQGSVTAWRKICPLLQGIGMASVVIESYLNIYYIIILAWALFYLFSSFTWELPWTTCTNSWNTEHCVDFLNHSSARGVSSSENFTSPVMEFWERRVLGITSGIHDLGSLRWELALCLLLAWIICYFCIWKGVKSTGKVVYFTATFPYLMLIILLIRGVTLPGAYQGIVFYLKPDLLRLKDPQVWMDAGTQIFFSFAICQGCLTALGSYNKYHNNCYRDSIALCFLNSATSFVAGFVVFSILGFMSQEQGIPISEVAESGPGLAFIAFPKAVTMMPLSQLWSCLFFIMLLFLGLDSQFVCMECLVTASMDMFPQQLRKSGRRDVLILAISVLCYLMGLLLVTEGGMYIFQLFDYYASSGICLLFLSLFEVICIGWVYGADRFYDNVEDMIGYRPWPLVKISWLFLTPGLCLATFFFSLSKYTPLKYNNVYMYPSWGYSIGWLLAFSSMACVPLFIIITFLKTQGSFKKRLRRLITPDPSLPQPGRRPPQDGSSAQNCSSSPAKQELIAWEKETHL

[3] = target: T3, mGAT3 (Mus musculus, UniProt P31649); assay: [3H]GABA uptake assay in HEK-293 cells stably expressing mGAT3; format: cell-based; conditions: for IC50: [3H]GABA uptake, read-out: pIC50 ± SEM mGAT3 (converted); for remaining [3H]GABA uptake mGAT3: in the presence of 100 μM inhibitor
T3 construct: expressed in transfected cells; host or cells: HEK-293
T3 sequence (P31649 1-602): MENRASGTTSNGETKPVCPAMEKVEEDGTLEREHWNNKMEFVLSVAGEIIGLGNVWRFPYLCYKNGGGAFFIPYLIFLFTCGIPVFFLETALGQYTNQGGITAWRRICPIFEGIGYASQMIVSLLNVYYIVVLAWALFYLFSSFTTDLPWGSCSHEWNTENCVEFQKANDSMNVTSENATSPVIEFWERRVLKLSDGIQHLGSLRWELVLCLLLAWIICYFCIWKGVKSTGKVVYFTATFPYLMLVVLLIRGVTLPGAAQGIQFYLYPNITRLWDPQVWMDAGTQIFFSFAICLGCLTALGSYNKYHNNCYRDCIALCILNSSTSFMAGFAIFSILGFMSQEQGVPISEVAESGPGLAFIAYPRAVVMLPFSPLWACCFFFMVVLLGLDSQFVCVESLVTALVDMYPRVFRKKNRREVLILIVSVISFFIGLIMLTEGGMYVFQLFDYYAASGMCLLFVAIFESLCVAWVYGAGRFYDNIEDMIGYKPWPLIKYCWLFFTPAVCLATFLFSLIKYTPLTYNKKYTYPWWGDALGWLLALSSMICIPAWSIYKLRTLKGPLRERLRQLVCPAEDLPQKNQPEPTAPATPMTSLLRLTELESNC

[4] = target: T4, mGAT4 (Mus musculus, UniProt P31650); assay: [3H]GABA uptake assay in HEK-293 cells stably expressing mGAT4; format: cell-based; conditions: for IC50: [3H]GABA uptake, read-out: pIC50 ± SEM mGAT4 (converted); for remaining [3H]GABA uptake mGAT4: in the presence of 100 μM inhibitor
T4 construct: expressed in transfected cells; host or cells: HEK-293
T4 sequence (P31650 1-627): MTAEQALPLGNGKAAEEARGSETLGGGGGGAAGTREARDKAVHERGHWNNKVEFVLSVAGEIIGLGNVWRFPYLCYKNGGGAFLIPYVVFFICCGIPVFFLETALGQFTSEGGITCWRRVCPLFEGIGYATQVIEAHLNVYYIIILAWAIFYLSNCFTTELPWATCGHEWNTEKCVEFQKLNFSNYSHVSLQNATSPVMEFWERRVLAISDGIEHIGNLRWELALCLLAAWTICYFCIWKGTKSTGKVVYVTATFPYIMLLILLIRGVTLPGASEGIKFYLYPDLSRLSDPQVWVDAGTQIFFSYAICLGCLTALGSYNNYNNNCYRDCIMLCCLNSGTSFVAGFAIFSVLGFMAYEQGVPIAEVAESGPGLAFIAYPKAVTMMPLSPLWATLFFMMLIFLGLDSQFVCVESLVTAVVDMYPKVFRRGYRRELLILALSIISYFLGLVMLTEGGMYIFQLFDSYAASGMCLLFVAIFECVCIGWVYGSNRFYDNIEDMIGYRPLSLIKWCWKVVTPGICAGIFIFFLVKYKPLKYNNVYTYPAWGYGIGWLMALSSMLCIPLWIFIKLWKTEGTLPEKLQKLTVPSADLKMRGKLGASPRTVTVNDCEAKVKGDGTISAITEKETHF

[5] = target: T1, mGAT1; assay: competitive MS binding assay with NO711 as unlabeled marker (LC-ESI-MS/MS); conditions: for remaining NO711 binding mGAT1: in the presence of 100 μM inhibitor
Protocol: Specific binding affinity toward mGAT1 was determined via a competitive mass spectrometry (MS) binding assay quantified by liquid chromatography–electrospray ionization tandem mass spectrometry (LC–ESI-MS/MS) with NO711 as an unlabeled marker.[50]
MS binding assays for mGAT1 were performed as described earlier.[50] Inhibition of mGAT1 binding by the synthesized compounds was determined in MS binding assays at a screening concentration of 100 μM and analyzed by LC–ESI-MS/MS.

Row | IC50 [1] | IC50 [2] | IC50 [3] | IC50 [4] | Ki ([5]; MS binding assay, read-out: pKi ± SEM mGAT1 (converted)) | remaining [3H]GABA uptake mGAT1 [1] | remaining NO711 binding mGAT1 [5] | remaining [3H]GABA uptake mGAT2 [2] | remaining [3H]GABA uptake mGAT3 [3] | remaining [3H]GABA uptake mGAT4 [4] | Structure (SMILES)
1 | 26.9 µM | 21.4 µM | 15.8 µM | 13.2 µM | 29.5 µM | – | – | – | – | – | Cc1ccc(CNC(=O)C(CO)N(C)CCC=C2c3ccccc3C=Cc3ccccc32)cc1 (centres unmarked) [Compound 55e, 2-((3-(5H-Dibenzo[a,d][7]annulen-5-ylidene)propyl)(methyl)amino)-N-(4-methylbenzyl)-3-hydroxypropanamide]
2 | – | 25.7 µM | 10.5 µM | 27.5 µM | – | 100 μM: 50% | 100 μM: 86% | – | – | – | CN(CCC=C1c2ccccc2CCc2ccccc21)C(CO)C(=O)NCc1ccccc1Cl (centres unmarked) [Compound 56b, N-(2-Chlorobenzyl)-2-((3-(10.11-dihydro-5H-dibenzo[a,d][7]annulen-5-ylidene)propyl)(methyl)amino)-3-hydroxypropanamide]
3 | 61.7 µM | 29.5 µM | 14.5 µM | 10.2 µM | – | – | 100 μM: 87% | – | – | – | CN(CCC=C1c2ccccc2CCc2ccccc21)C(CO)C(=O)NCc1ccc(Cl)cc1 (centres unmarked) [Compound 56c, N-(4-Chlorobenzyl)-2-((3-(10,11-dihydro-5H-dibenzo[a,d][7]annulen-5-ylidene)propyl)(methyl)amino)-3-hydroxypropanamide]
4 | 17.8 µM | 21.4 µM | 12.9 µM | 12.3 µM | – | – | 100 μM: 96% | – | – | – | CN(CCC=C1c2ccccc2CCc2ccccc21)C(CO)C(=O)NCc1ccc(F)cc1 (centres unmarked) [Compound 56d, N-(4-Fluorobenzyl)-2-((3-(10,11-dihydro-5H-dibenzo[a,d][7]annulen-5-ylidene)propyl)(methyl)amino)-3-hydroxypropanamide]
5 | 24.5 µM | 17.8 µM | 69.2 µM | 36.3 µM | – | – | 100 μM: 84% | – | – | – | O=C(NCc1ccccc1)C(CO)N1CCC(=C2c3ccccc3-c3ccccc32)CC1 (centres unmarked) [Compound 57, N-Benzyl-2-[4-(9H-fluoren-9-ylidene)piperidin-1-yl]-3-hydroxypropanamide]
6 | 35.5 µM | 22.4 µM | 20.9 µM | 23.4 µM | – | – | 100 μM: 83% | – | – | – | O=C(NCc1ccccc1)C(CO)N1CCC(=C2c3ccccc3CCc3ccccc32)CC1 (centres unmarked) [Compound 58, N-Benzyl-2-(4-(10,11-dihydro-5H-dibenzo[a,d][7]annulen-5-ylidene)piperidin-1-yl)-3-hydroxypropanamide]
7 | 22.9 µM | 22.9 µM | 58.9 µM | 26.9 µM | – | – | 100 μM: 80% | – | – | – | CN(CCON=C(c1ccccc1)c1ccccc1)C(CO)C(=O)NCc1ccccc1 (centres unmarked) [Compound 59a, N-Benzyl-2-((2-(((diphenylmethylene)amino)oxy)ethyl)(methyl)amino)-3-hydroxypropanamide]
8 | 44.7 µM | 12.9 µM | 15.8 µM | 12.9 µM | – | – | 100 μM: 92% | – | – | – | CN(CCON=C(c1ccccc1)c1ccccc1)C(CO)C(=O)NCc1ccccc1Cl (centres unmarked) [Compound 59b]
9 | 26.3 µM | 17 µM | 19.5 µM | 16.6 µM | – | – | 100 μM: 84% | – | – | – | CN(CCON=C(c1ccccc1)c1ccccc1)C(CO)C(=O)NCc1ccc(F)cc1 (centres unmarked) [Compound 59c, 2-((2-(((Diphenylmethylene)amino)oxy)ethyl)(methyl)amino)-N-(4-fluorobenzyl)-3-hydroxypropanamide]
10 | 7.08 µM | – | – | – | – | – | 100 μM: 81% | 100 μM: 108% | 100 μM: 69% | 100 μM: 77% | CCC(C(=O)NCc1ccccc1)N1CCC(=C(c2sccc2C)c2sccc2C)CC1 (centres unmarked) [Compound 64a, N-Benzyl-2-(4-(bis(3-methylthiophen-2-yl)methylene)piperidin-1-yl)butanamide]
11 | – | – | – | – | – | 100 μM: 66% | 100 μM: 108% | 100 μM: 101% | 100 μM: 61% | 100 μM: 64% | CCC(C(=O)NCc1ccccc1Cl)N1CCC(=C(c2sccc2C)c2sccc2C)CC1 (centres unmarked) [Compound 64b, 2-(4-(Bis(3-methylthiophen-2-yl)methylene)piperidin-1-yl)-N-(2-chlorobenzyl)butanamide]
12 | 58.9 µM | 26.3 µM | 13.8 µM | 26.3 µM | – | – | 100 μM: 104% | – | – | – | CC(C(=O)NCc1ccccc1)N(C)CCON=C(c1ccccc1)c1ccccc1 (centres unmarked) [Compound 65, N-Benzyl-2-((2-(((diphenylmethylene)amino)oxy)ethyl)(methyl)amino)propanamide]
13 | – | – | 16.6 µM | 13.8 µM | – | 100 μM: 50% | 100 μM: 104% | 100 μM: 55% | – | – | CCC(C(=O)NCc1ccccc1)N(C)CCON=C(c1ccccc1)c1ccccc1 (centres unmarked) [Compound 66a, N-Benzyl-2-((2-(((diphenylmethylene)amino)oxy)ethyl)(methyl)amino)butanamide]
14 | – | – | 45.7 µM | – | – | 100 μM: 69% | 100 μM: 107% | 100 μM: 59% | – | 100 μM: 50% | CCC(C(=O)NCc1ccccc1Cl)N(C)CCON=C(c1ccccc1)c1ccccc1 (centres unmarked) [Compound 66b, N-(2-Chlorobenzyl)-2-((2-(((diphenylmethylene)amino)oxy)ethyl)(methyl)amino)butanamide]
15 | 24.5 µM | 13.2 µM | 13.5 µM | 12 µM | – | – | 100 μM: 83% | – | – | – | Cc1ccsc1C(=CCCN(C)C(C)C(=O)NCc1ccccc1)c1sccc1C (centres unmarked) [Compound 67, N-Benzyl-2-((4,4-bis(3-methylthiophen-2-yl)but-3-en-1-yl)(methyl)amino)propanamide]
16 | 26.9 µM | 39.8 µM | 30.9 µM | 12.9 µM | – | – | 100 μM: 81% | – | – | – | CCC(C(=O)NCc1ccccc1)N(C)CCC=C(c1sccc1C)c1sccc1C (centres unmarked) [Compound 68, N-Benzyl-2-((4,4-bis(3-methylthiophen-2-yl)but-3-en-1-yl)(methyl)amino)butanamide]

Reference: paper PMC8397297 (ACS Chemical Neuroscience, 2021)
